Experimental data from publication PMC5637892 (Journal of Peptide Science, 2017).
Positions of bridges follow the written chain, without caps; N, C: chain ends. Primed or numbered codes have the meaning given here. No end group written: not given here. *: point of attachment. PEG4′ = PEG4 spacer between biotin and the N-terminus; Biotin = O=C1N[C@H]2[C@H](CS[C@H]2CCCCC(=O)*)N1

Tests used:
human IgG [1] = assay: Immunoprecipitation with peptide-immobilized SA beads, human IgG; format: binding; settings: biotinylated peptide on SA beads, shaken 1 h; SDS‐PAGE
IgY = assay: Peptide-conjugated affinity column HPLC, IgY; format: binding, chicken; settings: 0.1 M glycine‐HCl, pH 2.5 vs pH 3.0; IgY and IgY‐Fc
IgY‐Fc = assay: Peptide-conjugated affinity column HPLC, IgY‐Fc; format: binding, chicken; settings: for elution of IgY‐Fc from peptide column: 0.1 M glycine‐HCl, pH 2.5 vs pH 3.0, IgY and IgY‐Fc; for absorption of IgY‐Fc on peptide column: biotinylated peptide on HiTrap Streptavidin HP 1 mL, PBS wash
human IgG [2] = assay: Peptide-conjugated affinity column HPLC, human IgG; format: binding; settings: biotinylated peptide on HiTrap Streptavidin HP 1 mL, PBS wash
[3] = target: Chicken egg yolk immunoglobulin (IgY) (chicken); assay: SPR

Row | Molecule | recovery of hIgG by peptide beads (human IgG [1]) | elution of IgY from peptide column (IgY) | elution of IgY‐Fc from peptide column (IgY‐Fc) | absorption of IgY‐Fc on peptide column (IgY‐Fc) | human IgG on peptide column (human IgG [2]) | Kd [3]
1 | GVKCTWSSIVDWVCVDM (disulfide 4-14 (inferred)) [Y4‐4] | hIgG was not | eluted from the column at pH 2.5 and 3.0, although the elution peaks at pH 2.5 were sharper than those at pH 3.0 | eluted from the column at pH 2.5 and 3.0, although the elution peaks at pH 2.5 were sharper than those at pH 3.0 | IgY and IgY‐Fc proteins were absorbed onto both columns | human IgG passed through both peptide‐immobilized columns | 
2 | RSVCVWTAVTGWDCRND (disulfide 4-14 (inferred)) [Y5‐55] | hIgG was not | eluted from the column at pH 2.5 and 3.0, although the elution peaks at pH 2.5 were sharper than those at pH 3.0 | eluted from the column at pH 2.5 and 3.0, although the elution peaks at pH 2.5 were sharper than those at pH 3.0 | IgY and IgY‐Fc proteins were absorbed onto both columns | human IgG passed through both peptide‐immobilized columns | 
3 | {Biotin-PEG4′}-RSVCVWTAVTGWDCRND-NH2 (disulfide 4-14 (inferred)) [Y5‐55 synthetic peptide (biotinylated IgY‐binding peptide)] |  |  |  |  |  | 4.4 µM
4 | {Biotin-PEG4′}-GVKCTWSSIVDWVCVDM-NH2 (disulfide 4-14 (inferred)) [Y4‐4 synthetic peptide (biotinylated IgY‐binding peptide)] |  |  |  |  |  | 7.3 µM
